Experimental findings from ChEMBL document CHEMBL2429832, “N-substituted 8-aminopentacyclo[5.4.0.0(2,6).0(3,10).0(5,9)]undecanes as σ receptor ligands with potential neuroprotective effects” (Bioorg Med Chem, 2013) are described below.

Test [1] deals with T1, Muscarinic acetylcholine receptor M4 (Homo sapiens) (UniProt P08173).
T1 sequence (whole entry): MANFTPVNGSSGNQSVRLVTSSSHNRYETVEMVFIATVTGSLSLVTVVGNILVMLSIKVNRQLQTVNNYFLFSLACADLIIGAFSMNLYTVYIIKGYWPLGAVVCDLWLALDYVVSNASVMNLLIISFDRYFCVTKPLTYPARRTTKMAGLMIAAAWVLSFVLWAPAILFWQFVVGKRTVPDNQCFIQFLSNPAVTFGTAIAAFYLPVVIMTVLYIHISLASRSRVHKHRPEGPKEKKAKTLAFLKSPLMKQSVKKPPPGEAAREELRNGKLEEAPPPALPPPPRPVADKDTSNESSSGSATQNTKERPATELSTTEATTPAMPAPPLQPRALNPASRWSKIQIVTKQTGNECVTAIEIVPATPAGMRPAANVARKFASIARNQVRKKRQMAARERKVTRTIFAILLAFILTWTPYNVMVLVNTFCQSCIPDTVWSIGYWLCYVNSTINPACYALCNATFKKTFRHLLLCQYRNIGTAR
Description: Inhibition of muscarinic M4 receptor (unknown origin) at 10 uM by PDSP assay relative to control.

In the next test the target is D(3) dopamine receptor (Homo sapiens, UniProt P35462). Description: Inhibition of dopamine D3 receptor (unknown origin) at 10 uM by PDSP assay relative to control.
Test [2] concerns the target T2, Alpha-2A adrenergic receptor (Homo sapiens) (UniProt P08913).
T2 sequence (whole entry): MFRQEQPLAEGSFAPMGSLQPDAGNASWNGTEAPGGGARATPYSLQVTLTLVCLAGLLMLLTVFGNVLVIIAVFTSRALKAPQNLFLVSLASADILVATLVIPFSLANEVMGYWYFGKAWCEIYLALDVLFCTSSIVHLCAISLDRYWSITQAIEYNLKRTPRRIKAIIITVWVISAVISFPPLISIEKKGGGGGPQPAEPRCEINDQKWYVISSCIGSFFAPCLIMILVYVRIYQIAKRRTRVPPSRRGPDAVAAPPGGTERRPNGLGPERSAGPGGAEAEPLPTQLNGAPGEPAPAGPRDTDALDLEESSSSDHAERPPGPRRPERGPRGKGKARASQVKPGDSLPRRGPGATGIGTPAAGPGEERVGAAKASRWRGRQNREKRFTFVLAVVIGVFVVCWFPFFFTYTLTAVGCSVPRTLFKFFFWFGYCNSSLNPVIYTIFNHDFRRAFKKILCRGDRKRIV
Description: Inhibition of adrenergic alpha2A receptor (unknown origin) at 10 uM by PDSP assay relative to control.

The target in test [3] is T3, Alpha-2C adrenergic receptor (Homo sapiens) (UniProt P18825).
T3 sequence (whole entry): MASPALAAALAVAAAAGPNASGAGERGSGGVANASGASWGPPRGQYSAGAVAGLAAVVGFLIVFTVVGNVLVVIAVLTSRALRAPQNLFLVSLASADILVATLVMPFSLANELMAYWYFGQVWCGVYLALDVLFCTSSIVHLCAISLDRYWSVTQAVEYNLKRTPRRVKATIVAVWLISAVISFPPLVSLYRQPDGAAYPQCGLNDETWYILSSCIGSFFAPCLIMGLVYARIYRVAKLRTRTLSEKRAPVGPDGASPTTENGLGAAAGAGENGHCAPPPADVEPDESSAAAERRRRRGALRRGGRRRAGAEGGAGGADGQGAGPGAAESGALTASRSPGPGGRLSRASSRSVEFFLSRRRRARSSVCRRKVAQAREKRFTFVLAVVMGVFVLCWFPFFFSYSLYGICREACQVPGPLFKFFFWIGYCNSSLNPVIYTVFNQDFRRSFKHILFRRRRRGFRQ
As to the kind of experiment: Inhibition of adrenergic alpha2C receptor (unknown origin) at 10 uM by PDSP assay relative to control.

Test [4] deals with T4, Muscarinic acetylcholine receptor M1 (Homo sapiens) (UniProt P11229).
T4 sequence (whole entry): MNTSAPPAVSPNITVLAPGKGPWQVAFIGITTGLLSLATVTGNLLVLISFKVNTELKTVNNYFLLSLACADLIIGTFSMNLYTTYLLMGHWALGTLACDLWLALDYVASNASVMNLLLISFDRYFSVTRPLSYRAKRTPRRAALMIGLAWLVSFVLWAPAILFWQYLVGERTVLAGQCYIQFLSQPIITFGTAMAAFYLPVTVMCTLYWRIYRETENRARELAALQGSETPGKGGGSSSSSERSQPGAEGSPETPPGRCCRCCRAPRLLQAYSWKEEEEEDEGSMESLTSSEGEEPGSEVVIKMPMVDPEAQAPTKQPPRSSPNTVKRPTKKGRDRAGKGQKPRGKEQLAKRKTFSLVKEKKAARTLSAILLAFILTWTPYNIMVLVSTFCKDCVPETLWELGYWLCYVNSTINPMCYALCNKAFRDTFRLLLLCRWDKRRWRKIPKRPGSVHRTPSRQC
As to the kind of experiment: Inhibition of muscarinic M1 receptor (unknown origin) at 10 uM by PDSP assay relative to control.

The next test addresses D(2) dopamine receptor (Homo sapiens, UniProt P14416). As to the kind of experiment: Inhibition of dopamine D2 receptor (unknown origin) at 10 uM by PDSP assay relative to control.
The target of test [5] is T5, Sodium-dependent dopamine transporter (Homo sapiens, UniProt Q01959). As to the kind of experiment: Displacement of [3H]-WIN-35,428 from human DAT expressed in HEK cell membranes at 10 uM relative to control. To be noted: HEK293. On the technique in general: Displacement assays read how much labelled ligand stays bound in the presence of the test substance.
In test [6] the target is Muscarinic acetylcholine receptor M3 (Homo sapiens, UniProt P20309). Description: Inhibition of muscarinic M3 receptor (unknown origin) at 10 uM by PDSP assay relative to control.
Test [7] concerns the target Sodium-dependent serotonin transporter (Homo sapiens, UniProt P31645). As to the kind of experiment: Displacement of [3H]-citalopram from human SERT expressed in HEK cell membranes at 10 uM relative to control. Particulars: HEK293.
Test [8] addresses T5, Sodium-dependent dopamine transporter. Description: Displacement of [3H]-WIN-35,428 from human DAT expressed in HEK cell membranes. More on the design: species or system HEK293.

Sequence of Muscarinic acetylcholine receptor M3 (P20309 whole entry, looked up): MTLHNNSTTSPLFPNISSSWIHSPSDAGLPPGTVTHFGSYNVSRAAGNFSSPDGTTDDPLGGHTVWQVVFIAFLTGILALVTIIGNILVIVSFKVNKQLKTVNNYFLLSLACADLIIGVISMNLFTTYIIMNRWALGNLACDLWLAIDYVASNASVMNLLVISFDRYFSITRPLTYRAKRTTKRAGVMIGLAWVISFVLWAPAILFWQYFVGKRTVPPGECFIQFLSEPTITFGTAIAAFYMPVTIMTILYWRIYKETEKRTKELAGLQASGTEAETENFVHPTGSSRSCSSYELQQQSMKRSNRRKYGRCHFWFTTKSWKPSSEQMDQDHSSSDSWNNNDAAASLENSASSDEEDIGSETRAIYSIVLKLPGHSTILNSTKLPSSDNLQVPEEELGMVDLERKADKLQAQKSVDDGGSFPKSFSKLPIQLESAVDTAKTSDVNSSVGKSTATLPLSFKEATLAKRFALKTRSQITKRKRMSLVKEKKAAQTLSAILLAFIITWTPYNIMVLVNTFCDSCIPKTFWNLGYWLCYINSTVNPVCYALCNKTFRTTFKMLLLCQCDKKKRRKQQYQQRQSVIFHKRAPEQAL
Sequence of D(2) dopamine receptor (P14416 whole entry): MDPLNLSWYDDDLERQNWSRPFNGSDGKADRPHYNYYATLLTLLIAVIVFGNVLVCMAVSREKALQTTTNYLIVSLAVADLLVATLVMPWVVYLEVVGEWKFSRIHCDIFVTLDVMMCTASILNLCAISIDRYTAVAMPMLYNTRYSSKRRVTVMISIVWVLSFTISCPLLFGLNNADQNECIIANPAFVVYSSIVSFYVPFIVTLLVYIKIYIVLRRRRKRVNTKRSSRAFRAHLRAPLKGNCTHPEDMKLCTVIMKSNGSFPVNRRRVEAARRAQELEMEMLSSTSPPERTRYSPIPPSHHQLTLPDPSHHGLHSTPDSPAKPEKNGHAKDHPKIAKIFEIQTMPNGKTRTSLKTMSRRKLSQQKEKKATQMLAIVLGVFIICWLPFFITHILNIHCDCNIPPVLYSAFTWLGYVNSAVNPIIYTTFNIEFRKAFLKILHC
Sequence of Sodium-dependent serotonin transporter (P31645 whole entry, looked up): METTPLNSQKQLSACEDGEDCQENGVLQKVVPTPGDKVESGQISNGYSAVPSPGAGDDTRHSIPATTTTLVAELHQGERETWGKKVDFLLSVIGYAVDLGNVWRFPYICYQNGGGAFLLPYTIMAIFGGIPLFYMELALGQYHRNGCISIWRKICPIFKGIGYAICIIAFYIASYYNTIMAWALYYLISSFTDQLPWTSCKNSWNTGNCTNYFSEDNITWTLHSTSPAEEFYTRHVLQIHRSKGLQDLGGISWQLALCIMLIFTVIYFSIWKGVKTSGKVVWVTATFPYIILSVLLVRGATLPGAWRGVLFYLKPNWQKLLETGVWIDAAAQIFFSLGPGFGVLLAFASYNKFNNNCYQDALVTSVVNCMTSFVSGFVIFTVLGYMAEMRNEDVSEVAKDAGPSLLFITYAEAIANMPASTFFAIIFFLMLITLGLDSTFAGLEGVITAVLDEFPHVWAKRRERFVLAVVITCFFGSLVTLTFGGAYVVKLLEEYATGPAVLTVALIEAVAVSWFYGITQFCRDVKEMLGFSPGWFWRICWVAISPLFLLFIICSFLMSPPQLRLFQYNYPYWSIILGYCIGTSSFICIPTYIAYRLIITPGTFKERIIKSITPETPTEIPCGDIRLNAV
Sequence of D(3) dopamine receptor (P35462 whole entry): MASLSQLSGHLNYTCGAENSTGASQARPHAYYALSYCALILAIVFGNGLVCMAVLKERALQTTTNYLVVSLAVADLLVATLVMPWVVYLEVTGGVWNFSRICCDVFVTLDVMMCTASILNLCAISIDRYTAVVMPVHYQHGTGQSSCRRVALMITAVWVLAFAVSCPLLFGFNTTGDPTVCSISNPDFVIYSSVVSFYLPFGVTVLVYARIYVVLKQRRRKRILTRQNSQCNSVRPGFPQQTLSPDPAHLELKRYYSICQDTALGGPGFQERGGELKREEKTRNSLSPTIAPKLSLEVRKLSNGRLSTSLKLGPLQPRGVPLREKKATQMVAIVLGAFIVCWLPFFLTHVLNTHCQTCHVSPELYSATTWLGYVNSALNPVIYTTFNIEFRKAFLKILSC
T5 sequence (Q01959 whole entry): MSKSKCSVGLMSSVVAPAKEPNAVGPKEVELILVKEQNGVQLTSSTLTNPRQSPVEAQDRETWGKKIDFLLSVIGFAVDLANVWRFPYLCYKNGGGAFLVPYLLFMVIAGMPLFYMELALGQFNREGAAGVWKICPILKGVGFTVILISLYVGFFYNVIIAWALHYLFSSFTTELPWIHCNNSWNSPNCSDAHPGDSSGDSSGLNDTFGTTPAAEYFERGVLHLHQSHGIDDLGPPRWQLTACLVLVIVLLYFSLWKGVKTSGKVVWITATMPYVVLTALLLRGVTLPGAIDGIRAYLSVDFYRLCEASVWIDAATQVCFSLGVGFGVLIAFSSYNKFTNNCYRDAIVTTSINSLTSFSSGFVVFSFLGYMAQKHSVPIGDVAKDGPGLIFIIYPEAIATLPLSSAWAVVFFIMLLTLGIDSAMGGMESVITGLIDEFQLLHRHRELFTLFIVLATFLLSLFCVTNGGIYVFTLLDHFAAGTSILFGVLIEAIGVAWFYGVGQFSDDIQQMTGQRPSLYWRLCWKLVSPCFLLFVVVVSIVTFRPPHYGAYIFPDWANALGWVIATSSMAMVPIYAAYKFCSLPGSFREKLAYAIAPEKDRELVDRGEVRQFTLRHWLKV

The term inhibition denotes the relative decrease from the control value, in per cent. A lower inhibition goes with little suppression. For `CN(Cc1ccc2c(c1)OCO2)[C@H]1C2C3CC4C5C3CC2C5C41` (some centres not stated), the inhibition (in test [1]; on D(3) dopamine receptor; in test [2]; in test [3]; in [4]; against D(2) dopamine receptor) was less than 50% throughout. Besides, the inhibition in test [5] and in [6] was less than 50% in each case.
By Ki is commonly meant the dissociation constant of the complex between target and ligand, obtained from inhibition or displacement. High values mean a looser hold on the target, low ones a stronger hold on the target. With `c1ccc(CCN[C@H]2C3C4CC5C6C4CC3C6C52)cc1` (some centres not stated), the inhibition in test [7] and in test [4] was less than 50% in each case. Moreover, in test [8], the inhibitory constant (Ki) came out at 2020 nM.
For the molecule `CN(CCCc1cccc(F)c1)[C@H]1C2C3CC4C2C(=O)C2C4C3C21` (some centres not stated), the inhibition (in [7]; on D(3) dopamine receptor; at D(2) dopamine receptor; in test [5]) was less than 50% each time.
`CN(Cc1cccc(F)c1)[C@H]1C2C3CC4C2C(=O)C2C4C3C21` (some centres not stated): the inhibition (in [7]; against D(3) dopamine receptor; in [2]; in test [4]; against D(2) dopamine receptor) was less than 50% each time. Besides, the inhibition constant Ki in test [8] came out at 4520 nM.
For `CN(CCc1ccccn1)[C@H]1C2C3CC4C5C3CC2C5C41` (some centres not stated), the inhibition (in [7]; against D(3) dopamine receptor; in [2]; in test [3]; in test [4]; at D(2) dopamine receptor) was less than 50% throughout. Also, the inhibition in test [5] and in test [6] was less than 50% in each case.
For the molecule `CN(Cc1cccnc1)[C@H]1C2C3CC4C5C3CC2C5C41` (some centres not stated), the inhibition (in test [1]; in test [7]; at D(3) dopamine receptor; in [2]; in test [3]; in test [4]) was less than 50% each time. The inhibition (against D(2) dopamine receptor; in test [5]; in test [6]) was less than 50% in each case.
Regarding `CN(CC1CCCCC1)[C@H]1C2C3CC4C5C3CC2C5C41` (some centres not stated), the inhibition (in [1]; in test [7]; on D(3) dopamine receptor; in test [2]; in test [3]; in [4]) was less than 50% throughout. Further, the inhibition (against D(2) dopamine receptor; in test [5]; in test [6]) was less than 50% throughout.
As for `CN(Cc1ccccc1)[C@H]1C2C3CC4C2C(=O)C2C4C3C21` (some centres not stated), the inhibition (in test [7]; against D(3) dopamine receptor; in test [2]; on D(2) dopamine receptor; in test [5]) was less than 50% each time.
Take `COc1ccc(CN(C)[C@H]2C3C4CC5C3C(=O)C3C5C4C32)cc1OC` (some centres not stated): the inhibition (in test [7]; against D(3) dopamine receptor; in [3]; in [4]; at D(2) dopamine receptor; in [5]) was less than 50% each time. In test [6], this molecule showed an inhibition of less than 50%.
For `COc1cc(CN(C)[C@H]2C3C4CC5C6C4CC3C6C52)cc(OC)c1OC` (some centres not stated), the inhibition (at D(3) dopamine receptor; in [2]; in test [4]; at D(2) dopamine receptor; in test [6]) was less than 50% each time. In test [8], this molecule showed an inhibition constant (Ki) of more than 10000 nM.
With `CN(Cc1cccnc1)[C@H]1C2C3CC4C2C(=O)C2C4C3C21` (some centres not stated), the inhibition (in [7]; against D(3) dopamine receptor; in test [2]; in test [3]; in test [4]; on D(2) dopamine receptor) was less than 50% throughout. Moreover, the inhibition in [5] and in test [6] was less than 50% in each case.
Take `COc1ccc(CN[C@H]2C3C4CC5C6C4CC3C6C52)cc1OC` (some centres not stated): the inhibition (in test [1]; in test [4]; against D(2) dopamine receptor; in test [5]; in test [6]) was less than 50% each time.
For `CN(CCCc1cccc(F)c1)[C@H]1C2C3CC4C5C3CC2C5C41` (some centres not stated), the inhibition (in test [7]; in test [2]; in test [4]; at D(2) dopamine receptor; in test [5]; in test [6]) was less than 50% each time.
Turning to `c1ccc(CCN[C@H]2C3C4CC5C6C4CC3C6C52)nc1` (some centres not stated), the inhibition in test [7], in test [2] and in [4] was less than 50% in each case. In addition, affinity in test [8] was put at a Ki of 1560 nM.
On to `CN(Cc1ccccc1)[C@H]1C2C3CC4C5C3CC2C5C41` (some centres not stated), for which the inhibition (in test [1]; in test [7]; against D(3) dopamine receptor; in [2]; in test [3]; in test [4]) was less than 50% in each case. For the same molecule, the inhibition (against D(2) dopamine receptor; in [6]) was less than 50% throughout. Further, in test [8], the inhibition constant (Ki) is more than 10000 nM.
In the case of `COc1ccc(CN(C)[C@H]2C3C4CC5C6C4CC3C6C52)cc1OC` (some centres not stated), the inhibition (in test [7]; against D(3) dopamine receptor; in test [2]; in test [4]; against D(2) dopamine receptor; in [5]) was less than 50% each time. The same molecule registered an inhibition in [6] of less than 50%.
Consider `CN(CCc1ccccc1)[C@H]1C2C3CC4C2C(=O)C2C4C3C21` (some centres not stated), for which the inhibition (in test [7]; against D(3) dopamine receptor; in [2]; in [4]; against D(2) dopamine receptor; in [6]) was less than 50% each time. For the same molecule, the Ki in test [8] worked out at 1290 nM.
Consider `c1ccc(CN[C@H]2C3C4CC5C6C4CC3C6C52)cc1` (some centres not stated), for which the inhibition (in [1]; in test [7]; against D(3) dopamine receptor; in [2]; in test [3]; in [4]) was less than 50% in each case. Further, the inhibition (against D(2) dopamine receptor; in [6]) was less than 50% each time. In [8], the affinity corresponds to a Ki of 3480 nM.
Take `CN(CCc1cccc(F)c1)[C@H]1C2C3CC4C2C(=O)C2C4C3C21` (some centres not stated): the inhibition (in test [7]; against D(3) dopamine receptor; in test [2]; in test [4]; at D(2) dopamine receptor; in test [5]) was less than 50% in each case. Also, the inhibition in [6] is less than 50%.
